This passage reports IC50, IL-6 secretion and IL-10 secretion results from patent US20240124410A1, “SMALL MOLECULES AND THEIR USE AS MALT1 INHIBITORS” (University of Pittsburgh - Of the Commonwealth System of …, priority 2021, published 2024).

One assay has as its target T1, KvLQT1/minK (Homo sapiens, UniProt P15382+P51787).
T1 construct: Eurofins
Description: Eurofins SAFETYscan 78-target panel, off-target effects, KvLQT1/minK. The assay is classed as biochemical. Particulars: antagonist / blocker / inhibitor mode. The protocol: FIG. 9. Table summarizing the Eurofins analysis of potential off-target effects of M1i-124. […] values above 10 μM are generally considered to be acceptable. FIG. 10. Representative hematoxylin and eosin (H&E) staining of organ sections (lung, heart, kidney, liver and adrenal) from control and M1i-124 treated mice described in FIG. 6.
Studies were performed using the services of Touchstone Biosciences and Eurofins Pharma Discovery Services. […] All blood samples (30-50 ul per sample) were taken via tail vein at 5, 15, and 30 minutes, and 1, 2, 4, 6, 8, and 24 hours after dosing. Blood samples are collected in Greiner MiniCollect K2 EDTA tubes, placed on ice, and within 30 minutes, centrifuged at 15,000 g for 5 minutes to obtain plasma samples. All plasma samples are stored at −70° C. until analysis. Plasma samples were prepared for analysis by LC-MS/MS, and key PK parameters, including terminal half-life (t 112), initial plasma concentration (C0), area under the plasma concentration vs. time curve (AUC), volume of distribution at steady-state (Vss), total plasma clearance (CLp), and mean residence time (MRT), were measured.
Assay details are available through Eurofins.

Assay [1] has as its system IL-6 and IL-10 secretion in OCI-Ly3 cells. The assay is described as follows: IL-6 and IL-10 secretion by OCI-Ly3 cells (ELISA). It is filed as cell-based, human. The protocol: Expression of cytokines from cell culture supernatants was measured 24h after treatment with 0, 0.01, 0.03, 0.1, 0.3, 1, or 3 uM of compounds using the following ELISA kits according to the manufacturer's instructions: Human IL-2 ELISA (BioLegend Cat #431804), Human IL-6 ELISA (BioLegend Cat #430504), and Human IL-10 ELISA (BioLegend Cat #430604).
(In general: ELISA stands for enzyme-linked immunosorbent assay.)

Molecules are shown by their SMILES.

A word on the IC50: it is the midpoint of a concentration-inhibition curve. `O=S(=O)(NCc1ccc2c(c1)OCO2)c1ccc(Cc2ccc(S(=O)(=O)NCc3ccc4c(c3)OCO4)cc2)cc1` [M1i-124]: the IC50 against KvLQT1/minK amounted to 1800 nM. With `COc1ccc(CNS(=O)(=O)c2ccc(Cc3ccc(S(=O)(=O)NCc4ccc(OC)cc4)cc3)cc2)cc1` [M1i-124d1], in assay [1], the IL-6 secretion entry was “inhibit IL-6 and IL-10 secretion in a concentration-dependent manner”; the IL-10 secretion entry is “inhibit IL-6 and IL-10 secretion in a concentration-dependent manner”.
